This passage reports inhibition results from publication PMC6934184, “Selective DNA-PKcs inhibition extends the therapeutic index of localized radiotherapy and chemotherapy” (The Journal of Clinical Investigation, 2019).

Molecules are shown by their SMILES.

In general, inhibition refers to how much of the control response was suppressed.

In the test the target is T1, STK22D (TSSK1) (Homo sapiens, UniProt Q9BXA7).
T1 construct: purchased Thermo Fisher Scientific (Life Technologies) SelectScreen
Kind of test: SelectScreen Z'LYTE. Type of test: biochemical. An outline of the steps: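 NU5455 was profiled across the SelectScreen Broad panel of kinase activity and binding assays. Z'LYTE reactions such as CSF1R ran at apparent Km ATP, while the Adapta CAMK1 assay used ATP listed as 10. Values are given as percent.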

T1 sequence (Q9BXA7 whole entry): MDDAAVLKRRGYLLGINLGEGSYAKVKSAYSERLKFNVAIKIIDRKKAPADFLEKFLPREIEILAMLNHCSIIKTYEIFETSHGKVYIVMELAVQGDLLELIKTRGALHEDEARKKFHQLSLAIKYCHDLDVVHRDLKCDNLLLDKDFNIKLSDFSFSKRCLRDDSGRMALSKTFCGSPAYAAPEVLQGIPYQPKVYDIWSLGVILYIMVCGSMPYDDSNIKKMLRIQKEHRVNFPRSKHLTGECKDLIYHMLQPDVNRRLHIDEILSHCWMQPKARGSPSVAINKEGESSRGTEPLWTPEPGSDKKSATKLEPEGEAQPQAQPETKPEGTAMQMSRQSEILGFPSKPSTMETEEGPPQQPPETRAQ

`CN(C(=O)CN1CCOCC1)c1ccc2sc3c(-c4cccc5c(=O)cc(N6CC7CCC(C6)O7)oc45)cccc3c2c1` [NU5455]: the inhibition at 1 µM was determined as 4.2%.
